Our source for the IC50 and EC50 values is US10618916B2, “Heterocyclic compounds as immunomodulators” (Incyte Corporation, priority 2018, dated 2020).

Structures are written as SMILES.

As usually defined, the IC50 is the concentration that inhibits the measured activity by half. In general, EC50 refers to the concentration needed to bring the measured effect to its halfway point.

For experiment [1], the system named is U2OS/PD-L1 cells and Jurkat-PD-1-SHP cells. Put plainly: Src homology region 2 domain-containing phosphatase (SHP) assay. The class given is cell-based. The following applies: Homo sapiens, U2OS. In outline:
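U2OS/PD-L1 and Jurkat-PD-1-SHP cells (5000 each per well) were co-incubated with compound for 2 h at 37 °C in RPMI1640 with 1% FBS, 0.05% DMSO final. PathHunter chemiluminescence was read after 1 h at room temperature, and IC50 was fitted from percent of DMSO-control activity.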

The target of another experiment is PD-L1 (Homo sapiens (Human), UniProt Q9NZQ7). Put plainly: PD-L1 whole blood internalization assay. The class given is cell-based. Conditions: 24 HR, PD-L1 expression on CD14+ cells, human interferon γ.
Experiment [2] relates to PD-L1 aAPC/CHO-K1 cells and Jurkat-PD-1-NFAT effector cells. Put plainly: Nuclear factor of activated T-cells (NFAT) assay. The class given is cell-based. The following applies: Cricetulus griseus, CHO-K1. In outline:
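CHO-K1 cells expressing PD-L1 aAPC were co-cultured with Jurkat-PD-1-NFAT effector cells in RPMI 1640 with 1% FBS and compound (0.4% DMSO; top concentration 2 μM) for 24 h at 37 °C. Bio-Glo luminescence was read, fold induction normalised to DMSO wells, and EC50 fitted from percent of control compound activity.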

For experiment [3], the target named is PD-1/PD-L1 protein/protein interaction (recombinant human PD-L1 and human PD-1) (Homo sapiens (Human), UniProt Q9NZQ7). Put plainly: Homogeneous Time-Resolved Fluorescence (HTRF) PD-1/PD-L1 binding assay. In outline:
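Human PD-L1 (19-238, C-His; 10 nM final) and PD-1 (25-167, C-Fc; 3 nM final) preincubated 40 min with inhibitor in PBS pH 7.4, 0.05% Tween-20, 0.1% BSA, 1% DMSO, 25 °C. Eu-anti-human IgG (1 nM) and anti-His-APC (20 nM) added for 60 min; 665/620 nm ratio; IC50 from percent-control curves.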
(In general: Time-resolved FRET reads energy transfer from a long-lived donor to a nearby acceptor.)

PD-1/PD-L1 protein/protein interaction (recombinant human PD-L1 and human PD-1), sequence (Q9NZQ7 19-238): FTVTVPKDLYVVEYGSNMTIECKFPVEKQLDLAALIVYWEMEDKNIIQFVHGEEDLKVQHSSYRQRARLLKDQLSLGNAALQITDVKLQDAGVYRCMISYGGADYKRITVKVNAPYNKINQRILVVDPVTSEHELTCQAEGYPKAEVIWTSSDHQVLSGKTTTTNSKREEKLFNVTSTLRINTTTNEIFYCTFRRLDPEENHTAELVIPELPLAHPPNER
PD-L1, sequence (Q9NZQ7 19-290): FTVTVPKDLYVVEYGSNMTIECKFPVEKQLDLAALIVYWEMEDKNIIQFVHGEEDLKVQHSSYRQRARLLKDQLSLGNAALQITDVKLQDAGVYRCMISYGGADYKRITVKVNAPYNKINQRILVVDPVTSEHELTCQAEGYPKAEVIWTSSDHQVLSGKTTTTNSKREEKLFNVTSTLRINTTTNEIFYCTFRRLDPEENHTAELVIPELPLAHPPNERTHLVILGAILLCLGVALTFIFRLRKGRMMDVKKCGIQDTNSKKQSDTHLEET

As for `Cc1c(NC(=O)c2nc3c(n2C)CCN(CCC24CCC(C(=O)O)(CC2)C4)C3)cccc1-c1cccc(NC(=O)c2nc3c(n2C)CCN(CC24CCC(C(=O)O)(CC2)C4)C3)c1Cl` [Example 44, 4-((2-((3′-(5-(2-(4-carboxybicyclo[2.2.1]heptan-1-yl)ethyl)-1-methyl-4,5,6,7-tetrahydro-1H-imidazo[4,5-c]pyridine-2-carboxamido)-2-chloro-2′-methyl-[1,1′-biphenyl]-3-yl)carbamoyl)-1-methyl-1,4,6,7-tetrahydro-5H-imidazo[4,5-c]pyridin-5-yl)methyl)bicyclo[2.2.1]heptane-1-carboxylic acid], the IC50 in experiment [1] was not above 10 nM; against PD-L1, 100 to 500 nM; in experiment [3] it was not above 5 nM. In addition, the EC50 in experiment [2] is 10 to 100 nM.

Take `Cc1c(NC(=O)c2nc3c(n2C)CCN(CCC24CCC(C(=O)O)(CC2)C4)C3)cccc1-c1cccc(NC(=O)c2nc3c(n2C)CCN(CCc2ccc(C(=O)O)cc2)C3)c1Cl` [Example 45, 4-(2-(2-((3′-(5-(4-carboxyphenethyl)-1-methyl-4,5,6,7-tetrahydro-1H-imidazo[4,5-c]pyridine-2-carboxamido)-2′-chloro-2-methyl-[1,1′-biphenyl]-3-yl)carbamoyl)-1-methyl-1,4,6,7-tetrahydro-5H-imidazo[4,5-c]pyridin-5-yl)ethyl)bicyclo[2.2.1]heptane-1-carboxylic acid]: the IC50 is not above 10 nM in experiment [1], 100 to 500 nM against PD-L1 and 5 to 10 nM in experiment [3]. Moreover, in experiment [2], the EC50 lay within 10 to 100 nM.

On to `Cn1c(C(=O)Nc2cccc(-c3cccc(NC(=O)c4nc5c(n4C)CCN(CCC46CCC(C(=O)O)(CC4)C6)C5)c3C#N)c2Cl)nc2c1CCN(CCC13CCC(C(=O)O)(CC1)C3)C2` [Example 51, 4,4′-(((((2-chloro-2′-cyano-[1,1′-biphenyl]-3,3′-diyl)bis(azanediyl))bis(carbonyl))bis(1-methyl-1,4,6,7-tetrahydro-5H-imidazo[4,5-c]pyridine-2,5-diyl))bis(ethane-2,1-diyl))bis(bicyclo[2.2.1]heptane-1-carboxylic acid)], for which the IC50 in experiment [1] is not above 10 nM; on PD-L1 it was 10 to 100 nM; in experiment [3], not above 5 nM. The same compound had an EC50 in experiment [2] of 10 to 100 nM.

As for `Cc1c(NC(=O)c2nc3c(n2C)CCN(CCC24CCC(C(=O)O)(CC2)C4)C3)cccc1-c1cccc(NC(=O)c2nc3c(n2C)CCN(CCC24CCC(C(=O)O)(CC2)C4)C3)c1C` [Example 54, 4,4′-(((((2,2′-dimethyl-[1,1′-biphenyl]-3,3′-diyl)bis(azanediyl))bis(carbonyl))bis(1-methyl-1,4,6,7-tetrahydro-5H-imidazo[4,5-c]pyridine-2,5-diyl))bis(ethane-2,1-diyl))bis(bicyclo[2.2.1]heptane-1-carboxylic acid)], the IC50 in experiment [1] is not above 10 nM; against PD-L1 it was 100 to 500 nM; in experiment [3], not above 5 nM. The compound also registered an EC50 in experiment [2] of 10 to 100 nM.

Turning to `Cc1c(NC(=O)c2nc3c(n2C)CCN(CCC24CCC(C(=O)O)(CC2)C4)C3)cccc1-c1cccc(NC(=O)c2nc3c(n2C)CCN(C2CCOCC2)C3)c1C` [Example 56, 4-(2-(2-((2,2′-dimethyl-3′-(1-methyl-5-(tetrahydro-2H-pyran-4-yl)-4,5,6,7-tetrahydro-1H-imidazo[4,5-c]pyridine-2-carboxamido)-[1,1′-biphenyl]-3-yl)carbamoyl)-1-methyl-1,4,6,7-tetrahydro-5H-imidazo[4,5-c]pyridin-5-yl)ethyl)bicyclo[2.2.1]heptane-1-carboxylic acid], the IC50 was not above 10 nM in experiment [1], 100 to 500 nM against PD-L1 and not above 5 nM in experiment [3]. This compound also had an EC50 in experiment [2] of 10 to 100 nM.

For the compound `Cc1c(NC(=O)c2nc3c(n2C)CCN(CCC24CCC(C(=O)O)(CC2)C4)C3)cccc1-c1cccc(NC(=O)c2nc3c(n2C)CCN(C[C@@H](C)O)C3)c1C` [Example 57, (R)-4-(2-(2-((3′-(5-(2-hydroxypropyl)-1-methyl-4,5,6,7-tetrahydro-1H-imidazo[4,5-c]pyridine-2-carboxamido)-2,2′-dimethyl-[1,1′-biphenyl]-3-yl)carbamoyl)-1-methyl-1,4,6,7-tetrahydro-5H-imidazo[4,5-c]pyridin-5-yl)ethyl)bicyclo[2.2.1]heptane-1-carboxylic Acid], the IC50 in experiment [1] was not above 10 nM; against PD-L1 it was 10 to 100 nM; in experiment [3] it was not above 5 nM. Moreover, in experiment [2], the EC50 is 10 to 100 nM.

`Cc1c(NC(=O)c2nc3c(n2C)CCN(CCC24CCC(C(=O)O)(CC2)C4)C3)cccc1-c1cccc(NC(=O)c2nc3c(n2C)CCN(C[C@H](C)O)C3)c1C` [Example 58, (S)-4-(2-(2-((3′-(5-(2-hydroxypropyl)-1-methyl-4,5,6,7-tetrahydro-1H-imidazo[4,5-c]pyridine-2-carboxamido)-2,2′-dimethyl-[1,1′-biphenyl]-3-yl)carbamoyl)-1-methyl-1,4,6,7-tetrahydro-5H-imidazo[4,5-c]pyridin-5-yl)ethyl)bicyclo[2.2.1]heptane-1-carboxylic acid]: the IC50 is not above 10 nM in experiment [1], 100 to 500 nM on PD-L1 and not above 5 nM in experiment [3]. This compound also registered an EC50 in experiment [2] of 10 to 100 nM.

As to `Cn1c(C(=O)Nc2cccc(-c3cccc(NC(=O)c4nc5c(n4C)CCN(CC[C@H]4CC[C@H](C(=O)O)CC4)C5)c3Cl)c2Cl)nc2c1CCN(CCC13CCC(C(=O)O)(CC1)C3)C2` [Example 62, 4-(2-(2-((3′-(5-(2-(trans-4-carboxycyclohexyl)ethyl)-1-methyl-4,5,6,7-tetrahydro-1H-imidazo[4,5-c]pyridine-2-carboxamido)-2,2′-dichloro-[1,1′-biphenyl]-3-yl)carbamoyl)-1-methyl-1,4,6,7-tetrahydro-5H-imidazo[4,5-c]pyridin-5-yl)ethyl)bicyclo[2.2.1]heptane-1-carboxylic acid], the values for the IC50 (in experiment [1]; against PD-L1; in experiment [3]) were not above 10 nM, 10 to 100 nM and not above 5 nM, respectively. The compound also came in with an EC50 in experiment [2] of 10 to 100 nM.

With `Cn1c(C(=O)Nc2cccc(-c3cccc(NC(=O)c4nc5c(n4C)CCN([C@H]4CC[C@@](C)(C(=O)O)CC4)C5)c3Cl)c2Cl)nc2c1CCN(CCC13CCC(C(=O)O)(CC1)C3)C2` [Example 65, 4-(2-(2-((3′-(5-(cis-4-carboxy-4-methylcyclohexyl)-1-methyl-4,5,6,7-tetrahydro-1H-imidazo[4,5-c]pyridine-2-carboxamido)-2,2′-dichloro-[1,1′-biphenyl]-3-yl)carbamoyl)-1-methyl-1,4,6,7-tetrahydro-5H-imidazo[4,5-c]pyridin-5-yl)ethyl)bicyclo[2.2.1]heptane-1-carboxylic Acid], the figures for the IC50 (in experiment [1]; at PD-L1; in experiment [3]) were not above 10 nM, 10 to 100 nM and not above 5 nM, respectively. Moreover, the EC50 in experiment [2] was 10 to 100 nM.

For the compound `Cn1c(C(=O)Nc2cccc(-c3cccc(NC(=O)c4nc5c(n4C)CCN([C@H]4CC[C@](C)(C(=O)O)CC4)C5)c3Cl)c2Cl)nc2c1CCN(CCC13CCC(C(=O)O)(CC1)C3)C2` [Example 66, 4-(2-(2-((3′-(5-(trans-4-carboxy-4-methylcyclohexyl)-1-methyl-4,5,6,7-tetrahydro-1H-imidazo[4,5-c]pyridine-2-carboxamido)-2,2′-dichloro-[1,1′-biphenyl]-3-yl)carbamoyl)-1-methyl-1,4,6,7-tetrahydro-5H-imidazo[4,5-c]pyridin-5-yl)ethyl)bicyclo[2.2.1]heptane-1-carboxylic Acid], the IC50 is not above 10 nM in experiment [1], 10 to 100 nM at PD-L1 and not above 5 nM in experiment [3]. The compound further showed an EC50 in experiment [2] not above 10 nM.
